How the values were obtained:
[1] = biological target: TYK2 (Homo sapiens, UniProt P29597); test: radiometric KinaseProfiler kinase assay, […] ATP; type: biochemical
[2] = biological target: JAK1 (Homo sapiens, UniProt P23458); test: radiometric KinaseProfiler kinase assay, […] ATP; type: biochemical
[3] = biological target: T1, JAK3 (Homo sapiens, UniProt P52333); test: radiometric KinaseProfiler assay with ATP titration (Ki; IC50 […]); also JAK3 immunoprecipitate kinase assay; type: biochemical
T1 sequence (P52333 1-1124): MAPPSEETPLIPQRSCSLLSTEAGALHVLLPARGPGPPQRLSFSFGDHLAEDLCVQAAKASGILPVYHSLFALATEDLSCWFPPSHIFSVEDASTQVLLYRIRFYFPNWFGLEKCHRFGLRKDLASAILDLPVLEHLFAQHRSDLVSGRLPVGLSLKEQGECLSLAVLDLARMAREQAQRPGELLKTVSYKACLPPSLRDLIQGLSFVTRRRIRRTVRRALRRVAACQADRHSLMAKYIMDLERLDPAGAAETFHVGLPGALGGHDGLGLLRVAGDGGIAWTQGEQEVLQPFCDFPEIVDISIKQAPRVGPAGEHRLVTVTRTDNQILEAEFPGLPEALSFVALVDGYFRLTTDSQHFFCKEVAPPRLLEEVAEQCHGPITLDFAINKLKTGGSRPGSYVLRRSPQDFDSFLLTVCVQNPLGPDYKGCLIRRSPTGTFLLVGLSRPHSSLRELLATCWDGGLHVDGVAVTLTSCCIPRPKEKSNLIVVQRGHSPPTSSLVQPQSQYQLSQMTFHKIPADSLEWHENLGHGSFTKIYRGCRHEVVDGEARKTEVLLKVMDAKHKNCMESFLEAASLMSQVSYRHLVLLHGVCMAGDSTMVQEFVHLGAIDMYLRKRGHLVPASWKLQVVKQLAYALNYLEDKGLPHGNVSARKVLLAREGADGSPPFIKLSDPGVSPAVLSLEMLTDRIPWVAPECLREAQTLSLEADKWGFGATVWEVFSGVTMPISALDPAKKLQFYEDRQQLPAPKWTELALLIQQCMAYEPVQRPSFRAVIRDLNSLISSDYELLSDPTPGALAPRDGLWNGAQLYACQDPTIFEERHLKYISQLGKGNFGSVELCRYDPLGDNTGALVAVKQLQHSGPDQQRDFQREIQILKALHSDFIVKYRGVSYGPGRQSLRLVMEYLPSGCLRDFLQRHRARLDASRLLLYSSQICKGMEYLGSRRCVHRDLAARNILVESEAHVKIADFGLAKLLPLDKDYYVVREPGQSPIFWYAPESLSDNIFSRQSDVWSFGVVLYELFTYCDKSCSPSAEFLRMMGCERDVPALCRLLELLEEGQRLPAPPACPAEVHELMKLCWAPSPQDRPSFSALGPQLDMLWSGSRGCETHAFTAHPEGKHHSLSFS

[4] = biological target: JAK2 (Homo sapiens, UniProt O60674); test: radiometric KinaseProfiler kinase assay, […] ATP; type: biochemical
[5] = biological target: T1, JAK3; test: KinaseProfiler kinase assay, positive control; type: biochemical
[6] = biological target: T1, JAK3

TYK2, sequence (P29597 whole entry): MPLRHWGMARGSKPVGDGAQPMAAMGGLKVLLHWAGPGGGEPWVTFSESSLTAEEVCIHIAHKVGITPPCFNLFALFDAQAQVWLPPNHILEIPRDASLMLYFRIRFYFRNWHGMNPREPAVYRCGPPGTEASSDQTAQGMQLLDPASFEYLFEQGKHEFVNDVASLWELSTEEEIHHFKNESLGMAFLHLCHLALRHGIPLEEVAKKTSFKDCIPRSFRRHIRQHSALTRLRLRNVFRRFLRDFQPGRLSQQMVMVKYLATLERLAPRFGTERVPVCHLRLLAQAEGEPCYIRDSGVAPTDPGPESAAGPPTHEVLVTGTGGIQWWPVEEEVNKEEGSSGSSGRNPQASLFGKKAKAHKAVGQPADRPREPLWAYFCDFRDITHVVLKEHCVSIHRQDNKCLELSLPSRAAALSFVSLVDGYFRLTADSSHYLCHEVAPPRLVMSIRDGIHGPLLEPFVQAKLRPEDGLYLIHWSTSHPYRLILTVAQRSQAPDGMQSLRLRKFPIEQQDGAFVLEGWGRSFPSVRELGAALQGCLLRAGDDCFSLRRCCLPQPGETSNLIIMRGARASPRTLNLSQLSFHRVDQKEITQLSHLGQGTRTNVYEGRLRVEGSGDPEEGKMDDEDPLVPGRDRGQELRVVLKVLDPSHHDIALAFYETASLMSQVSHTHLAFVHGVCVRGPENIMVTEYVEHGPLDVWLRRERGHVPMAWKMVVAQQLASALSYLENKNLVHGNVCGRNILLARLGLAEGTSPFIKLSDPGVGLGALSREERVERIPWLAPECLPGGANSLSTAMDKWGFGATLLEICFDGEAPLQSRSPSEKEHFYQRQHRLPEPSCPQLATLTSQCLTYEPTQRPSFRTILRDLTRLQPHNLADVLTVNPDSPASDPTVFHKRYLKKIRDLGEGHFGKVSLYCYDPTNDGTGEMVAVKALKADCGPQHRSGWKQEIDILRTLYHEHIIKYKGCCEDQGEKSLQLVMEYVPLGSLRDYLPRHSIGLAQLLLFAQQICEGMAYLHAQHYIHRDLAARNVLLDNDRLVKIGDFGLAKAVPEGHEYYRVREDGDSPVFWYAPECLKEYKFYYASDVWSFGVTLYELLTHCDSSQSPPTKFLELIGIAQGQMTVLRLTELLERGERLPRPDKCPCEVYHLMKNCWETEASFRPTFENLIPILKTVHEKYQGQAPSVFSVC
JAK1, sequence (P23458 whole entry): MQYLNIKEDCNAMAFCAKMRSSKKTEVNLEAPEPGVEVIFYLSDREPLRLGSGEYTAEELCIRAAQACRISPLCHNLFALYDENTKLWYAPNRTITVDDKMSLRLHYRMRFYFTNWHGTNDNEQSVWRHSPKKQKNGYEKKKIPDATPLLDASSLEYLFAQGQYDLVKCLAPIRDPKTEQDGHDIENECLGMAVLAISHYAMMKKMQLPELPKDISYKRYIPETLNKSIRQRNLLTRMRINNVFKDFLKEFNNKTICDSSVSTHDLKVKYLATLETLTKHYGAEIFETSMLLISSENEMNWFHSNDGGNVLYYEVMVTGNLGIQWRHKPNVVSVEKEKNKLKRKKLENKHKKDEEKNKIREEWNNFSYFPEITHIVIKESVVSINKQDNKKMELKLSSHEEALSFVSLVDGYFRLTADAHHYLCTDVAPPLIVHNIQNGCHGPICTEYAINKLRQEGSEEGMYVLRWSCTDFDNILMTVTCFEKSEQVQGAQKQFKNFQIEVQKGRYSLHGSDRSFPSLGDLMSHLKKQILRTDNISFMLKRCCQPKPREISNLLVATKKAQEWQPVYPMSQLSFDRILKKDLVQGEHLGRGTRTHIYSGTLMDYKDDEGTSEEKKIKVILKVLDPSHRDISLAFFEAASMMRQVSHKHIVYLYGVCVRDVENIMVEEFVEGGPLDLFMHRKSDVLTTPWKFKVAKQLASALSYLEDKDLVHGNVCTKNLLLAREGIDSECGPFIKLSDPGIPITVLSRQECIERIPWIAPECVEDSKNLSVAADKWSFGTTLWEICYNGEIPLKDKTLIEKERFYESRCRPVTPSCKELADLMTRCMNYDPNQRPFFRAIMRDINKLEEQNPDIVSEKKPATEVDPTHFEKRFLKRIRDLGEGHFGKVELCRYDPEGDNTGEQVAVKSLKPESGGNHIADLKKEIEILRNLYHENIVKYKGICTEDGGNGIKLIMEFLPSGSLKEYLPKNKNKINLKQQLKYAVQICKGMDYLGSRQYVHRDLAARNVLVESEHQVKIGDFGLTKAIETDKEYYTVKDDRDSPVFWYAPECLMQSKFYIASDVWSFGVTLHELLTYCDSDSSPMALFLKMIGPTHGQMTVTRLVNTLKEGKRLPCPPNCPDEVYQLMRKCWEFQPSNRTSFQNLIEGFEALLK
JAK2, sequence (O60674 whole entry): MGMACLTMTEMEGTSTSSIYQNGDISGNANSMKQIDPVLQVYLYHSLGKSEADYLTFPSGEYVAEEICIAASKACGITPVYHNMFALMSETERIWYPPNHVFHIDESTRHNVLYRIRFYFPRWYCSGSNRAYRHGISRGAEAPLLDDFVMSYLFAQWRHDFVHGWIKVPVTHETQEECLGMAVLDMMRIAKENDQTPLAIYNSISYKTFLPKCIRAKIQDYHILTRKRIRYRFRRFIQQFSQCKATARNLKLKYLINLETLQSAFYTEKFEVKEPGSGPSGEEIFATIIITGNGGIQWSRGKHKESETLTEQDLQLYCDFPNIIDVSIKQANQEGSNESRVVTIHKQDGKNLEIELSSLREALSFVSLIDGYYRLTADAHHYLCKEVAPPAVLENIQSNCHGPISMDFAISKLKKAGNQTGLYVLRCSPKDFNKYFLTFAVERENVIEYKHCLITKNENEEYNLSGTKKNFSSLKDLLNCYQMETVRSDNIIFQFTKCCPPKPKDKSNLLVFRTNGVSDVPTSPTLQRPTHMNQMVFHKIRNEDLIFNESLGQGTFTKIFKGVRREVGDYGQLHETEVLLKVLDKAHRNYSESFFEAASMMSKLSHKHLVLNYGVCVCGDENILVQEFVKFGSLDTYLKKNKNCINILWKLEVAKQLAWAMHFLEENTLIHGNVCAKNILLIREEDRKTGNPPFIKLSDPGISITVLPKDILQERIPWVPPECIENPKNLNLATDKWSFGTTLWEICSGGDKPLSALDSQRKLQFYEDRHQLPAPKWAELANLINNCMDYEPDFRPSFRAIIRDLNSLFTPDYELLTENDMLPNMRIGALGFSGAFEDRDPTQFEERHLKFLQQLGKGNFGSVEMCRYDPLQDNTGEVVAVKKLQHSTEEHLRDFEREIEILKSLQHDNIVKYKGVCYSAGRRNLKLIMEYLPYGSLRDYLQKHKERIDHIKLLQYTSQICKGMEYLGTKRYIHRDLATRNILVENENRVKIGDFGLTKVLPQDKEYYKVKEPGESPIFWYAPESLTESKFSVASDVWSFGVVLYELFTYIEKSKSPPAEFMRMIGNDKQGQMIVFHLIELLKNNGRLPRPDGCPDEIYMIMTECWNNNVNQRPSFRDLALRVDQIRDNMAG

CC[C@H]1CN2CCc3cc(OC)c(OC)cc3[C@@H]2C[C@@H]1C[C@H]1NCCc2c1[nH]c1ccc(O)cc21 [tubulosine]
IC50 [1]: 76.3 nM
IC50 [2]: 69.5 nM
Ki [3]: 12.9 ± 1.3 nM
IC50 [4]: 84.9 nM

CN[C@@H]1C[C@H]2O[C@@](C)([C@@H]1OC)n1c3ccccc3c3c4c(c5c6ccccc6n2c5c31)C(=O)NC4 [staurosporine]
KinaseProfiler kinase assay, positive control [5]: Staurosporine was used as a positive control for ATP‐competitive inhibition of JAKs

Nc1ncnc2c1ncn2[C@@H]1O[C@H](COP(=O)(O)OP(=O)(O)OP(=O)(O)O)[C@@H](O)[C@H]1O [ATP]
Km [6]: 212 ± 25.7 µM

From article PMC7339168 (Journal of Cellular and Molecular Medicine, 2020)
